Test results from paper PMC6789782, “Safety Pharmacological Evaluation of the Coffee Component, Caffeoylquinic Acid, and Its Metabolites, Using Ex Vivo and In Vitro Profiling Assays” (Pharmaceuticals, 2019).
Values joined by “and” are separate entries in the source; they are usually repeats but may differ in a detail not shown here. Equal entries are not always repeated.

What was measured:
[1] = test system: mice; conditions: 96 weeks; cited from earlier work
[2] = test system: rats; conditions: two years; cited from earlier work
[3] = test system: rat hippocampal slices; assay: Electrophysiological assay of hippocampal slices, epileptiform discharge (ED) recording; conditions: ± SEM
Method: A hippocampal slice was placed on the multielectrode array (200 μm distant electrodes) to ensure the multi-electrode grid covered the major surface of the slice. […]
ED frequency (in Hz) was determined as follows: raw data were filtered with a Low Pass filter (Butterworth second order filter) set to 20 Hz. ED number was monitored on-line (epileptiform event amplitudes had to be higher than 15 μV to be counted; a dead time of 200 ms was applied for each epileptiform event detected). ED frequency was averaged using 30-s time intervals. Results are presented as mean frequency of ED for the last 2 min of each condition (± SEM).

[4] = test system: isolated perfused guinea pig heart; assay: Langendorff perfused heart assay; conditions: for % change in LV dP/dt max from pre-application / % change in LVPSP from pre-application: mean ± SD, n = 3
Method: After injection of heparin sodium (100 unit/body, AY Pharmaceuticals Co., Ltd.) into the jugular vein, the animals were exsanguinated. […] A stainless-steel cannula was inserted in the aorta, followed by attachment to the Langendorff apparatus (Physio-Tech Co., Ltd., Tokyo, Japan). The attached heart was perfused with KH solution at 37.0 ± 0.2 °C. Before use, the KH solution was aerated by a gas mixture (95%O2 + 5%CO2) for 30 min or longer. The perfusion pressure was maintained at 70 mmHg.
DMSO solutions at 1, 10, and 100 mM were diluted 1000-fold with the KH solution to make test solutions of 1, 10, and 100 μM, respectively. The test solutions were cumulatively applied at a flow rate of 20 mL/min for 10 min with each concentration.
An ECG signal was recorded using electrodes fixed on the ventricular apex (+), and a stainless-steel cannula was inserted in the aorta (−), and LVP was recorded from the balloon catheter placed in the left ventricle. The ECG signals were amplified with an amplifier (DAM50; World Precision Instruments, Inc.) and LVPs were monitored with a Pressure Monitor 4 (Living Systems Instrumentation). Both of the waveforms were recorded with computer software (1000 Hz; iox2 and ecgAUTO3; emka Technologies).
Before measurement, the in-balloon pressure was adjusted so that the diastolic blood pressure would be in the range of 0 to 10 mmHg. The cardiac parameters, such as HR, PR interval, QRS duration, QT interval, QTc interval (Fridericia’s formula: QTc = QT/RR^1/3), LVPSP, left-ventricular end diastolic pressure (LVEDP), and LV dP/dt max, were measured.
Data are expressed as mean (± SD). The measured % changes from the pre-application value were used for analyses. Williams test was carried out between the solvent-control and test compound. Student’s t-test was carried out between the solvent-control and positive-control. […] The data from the solvent control and drug groups were tested by F test for homogeneity of variance. F test was performed at the significance level of 5%. When the variances were homogeneous, Student’s t-test was subsequently performed. When the variances were nonhomogeneous, Welch t-test was selected.

[5] = test system: ileum isolated from guinea pig; assay: In vitro Magnus assay, ileum; conditions: 100 µM; ± SEM; p < 0.05
Method: (§1) Guinea pigs (Japan SLC, Inc., Shizuoka, Japan) were anesthetized with pentobarbital sodium (30–50 mg/kg, i.p.) and the stomach fundi, ileums, and colons were dissected after being exsanguinated. Tissues were immediately placed in Tyrode’s solution containing NaCl 136.9 mM, KCl 2.7 mM, MgCl2.6H2O 1.2 mM, CaCl2.2H2O 2.0 mM, NaHCO3 11.9 mM, and D(+)-glucose 5.6 mM, and flushed for luminal content removal. Segments of approximately 2 cm were cut from each tissue and placed in an organ bath containing Tyrode’s solution aerated with O2:CO2 (95:5) at 32 °C. The tissue segments were connected to an isometric transducer (load, 1.0 g) to record the contractions (Nihon Kohden Corporation, Tokyo, Japan).
(§2) Maximum recording period for one condition was 20 min, and the test solution was exchanged when no effect was detected within 3 min. […] The concentration of acetylcholine was set based on preliminary experiments.

[6] = test system: rat hippocampal slices; assay: Electrophysiological assay of hippocampal slices, population spike (PS) recording
Method: All animals were housed and used in accordance with the French and European legislations for animal care. Rats (Janvier Labs, Le Genest-Saint-Isle, France) were euthanized by fast decapitation, without prior anesthesia. The brain was quickly removed and soaked in ice-cold oxygenated buffer containing KCl 2 mM, NaH2PO4 1.2 mM, MgCl2 7 mM, CaCl2 0.5 mM, NaHCO3 26 mM, glucose 11 mM, and sucrose 250 mM. […] During the experiments, slices were perfused with oxygenated artificial cerebrospinal fluid at 37 °C at a rate of 3 mL/min. The tested slice numbers were > 2 for 100 µM, > 4 for 10 µM, and > 6 for 1 µM (follow-up study). All experiments were carried out with 3-dimensional multielectrode array (Qwane Biosciences S.A., Lausanne, Switzerland) and data were recorded with a commercially available multielectrode array set-up from MultiChannel Systems (MCS GmbH, Reutlingen, Germany).
A hippocampal slice was placed on the multielectrode array (100 μm distant electrodes). One electrode was chosen to stimulate schaffer collaterals (SC) at the CA1 border. The stimulus in a monopolar biphasic current pulse (−300 μA for 60 μs followed by +300 μA for 60 μs) was applied at 30-s intervals. An Input/Output (I/O) curve was derived before each experiment to determine the stimulation intensity. Basal stimulation intensity was then set to 100 μA higher than the minimal intensity necessary to induce PS in the pyramidal cell layer.
Then, 1 μM bicuculline, the antagonist of GABAA, was applied in the continuous presence of the compound for an additional 40-min. Control bicuculline slices were recorded in parallel and after 50 min of control recording, 1 μM bicuculline was applied for a 40-min period.
Normalized PS AUC was averaged by slices for each experiment carried out in the same conditions. PS AUC (± SEM) is expressed as a function of time. The number of PS oscillations induced at the end of the bicuculline-exposure period was determined for each electrode and averaged by slices. The results are presented as mean of the last 2 min of application. Statistical significance was measured using two-way ANOVA analysis with Sidak’s multiple comparisons test, except for the 100 µM concentration because of its small slice number.

[7] = test system: fundus isolated from guinea pig; assay: In vitro Magnus assay, stomach fundus; conditions: 100 µM; ± SEM; p < 0.01
Method: as §1, §2

[8] = test system: GI transit and gastric emptying; conditions: rats; dose-dependent manner; cited from earlier work
[9] = 10 µM compound, co-exposure with 50 μM 4-AP

O=C(O)/C=C/c1ccc(O)c(O)c1 [CA, caffeic acid]
Safety pharmacological toxicity on chronic exposure [1]: no safety pharmacological toxicity
Safety pharmacological toxicity on chronic exposure [2]: no safety pharmacological toxicity
ED rate [3, 9]: 0.55 ± 0.07 Hz
ED rate ([3]; follow-up test, 1 µM compound, co-exposure with 4-AP): 0.35 ± 0.03 Hz
% change in LV dP/dt max from pre-application ([4]; 10 μM): −6.5 ± 1.6%
% change in LVPSP from pre-application ([4]; 10 μM): −4.3 ± 0.8%
% change in LV dP/dt max from pre-application ([4]; 100 μM): −8.8 ± 0.8%
% change in LVPSP from pre-application ([4]; 100 μM): −6.2 ± 0.9%

O=C(/C=C/c1ccc(O)c(O)c1)O[C@H]1C[C@@](O)(C(=O)O)C[C@H](O)[C@@H]1O [5-CQA, 5-O-caffeoylquinic acid]
Tension in the ileum [5]: 0.293 ± 0.068 g
ED rate [3, 9]: 0.38 ± 0.04 Hz
% change in LV dP/dt max from pre-application ([4]; 100 μM): −12.0 ± 6.2% and −12%
% change in LVPSP from pre-application ([4]; 100 μM): −8.5 ± 6.2%

COc1cc(/C=C/C(=O)O)ccc1O [FA, ferulic acid]
Additional spike number ([6]; follow-up test, 1 µM alone, single application period): did not trigger multiple spikes
Tension in the fundus [7]: 0.089 ± 0.005 g
Effect on GI transit and gastric emptying [8]: significantly accelerates
ED rate [3, 9]: 0.41 ± 0.04 Hz
Effect on LVP ([4]; at 100 μM): did not affect
Change in ECG parameters compared to solvent control ([4]; until 100 µM): no significant change

COc1cc(/C=C/C(=O)O[C@H]2C[C@@](O)(C(=O)O)C[C@H](O)[C@@H]2O)ccc1O [5-FQA, 5-O-feruloylquinic acid]
Additional spike number ([6]; 10 μM compound, co-exposure with 1 μM bicuculline): in the same range as the bicuculline control slices
ED rate [3, 9]: 0.46 ± 0.05 Hz
